The test system of one test is Wistar rats. The test can be described thus: potentiation of morphine-induced analgesia, tail-flick technique in morphine-unresponsive rats. In kind it is in vivo.
The target in a further test is T1, carboxypeptidase B (Sus scrofa, UniProt P09955).
T1 construct: purified carboxypeptidase B (a product of Boehringer-Mannheim obtained from the pancreas of pigs); purchased Boehringer-Mannheim; host or cells: pig pancreas
T1 sequence (P09955 111-416): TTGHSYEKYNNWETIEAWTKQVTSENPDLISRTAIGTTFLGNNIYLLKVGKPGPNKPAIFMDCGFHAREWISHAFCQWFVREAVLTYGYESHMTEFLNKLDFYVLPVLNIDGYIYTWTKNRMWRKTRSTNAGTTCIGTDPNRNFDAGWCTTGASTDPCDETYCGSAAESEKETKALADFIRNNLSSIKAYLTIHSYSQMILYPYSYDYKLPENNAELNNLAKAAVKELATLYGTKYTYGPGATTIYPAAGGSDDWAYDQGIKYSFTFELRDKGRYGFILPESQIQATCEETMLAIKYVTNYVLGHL
The test can be described thus: anti-carboxypeptidase B activity (hippuryl-L-lysine substrate, cyanuric chloride colour reaction). As to conditions: purified carboxypeptidase B from the pancreas of pigs, 37°C, pH 8.0; read-out: 50 % inhibition (IC50) against carboxypeptidase B (converted). In kind it is biochemical. On the procedure:
Histargin in the cultivation and purification steps was traced by measuring anti-carboxypeptidase B activity. Anti-carboxypeptidase B activity was measured in the following way according to an improved method based on the angiotensin I transferase activity determination method described in M.Hayakari et al., "Analytical Biochemistry," 84, 361-369, 1978.
A mixed solution was prepared by adding 0.25 ml of 0.05M Tris-hydrochloric acid buffer solution (pH 8.0) and 0.15 ml of a solution containing a histargin sample to 0.05 ml of 0.05M hippuryl-L-lysine (a product of Peptide Institute). The mixed solution was heated for 3 minutes at 37°C, and 0.05 ml of an aqueous solution of 1 µg/ml of purified carboxypeptidase B (a product of Boehringer-Mannheim obtained from the pancreas of pigs) was added to the mixed solution. To the resulting mixture was added 0.03 ml of 1N sodium hydroxide to terminate the reaction. Fifteen minutes later, 2 ml of a 1 % methyl cellosolve solution of cyanuric chloride was added for a color reaction. After the mixture was allowed to stand for 15 minutes at room temperature, the absorbance (a) at 382 nm was measured. Separately, there was measured the blank absorbance (b) of the same reaction mixture except that the histargin sample was not contained. The percent inhibition against carboxypeptidase B was calculated from the equation [(b - a)/b] x 100.

In another test the test system is Slc-CDF1 mice. The test can be described thus: cell-mediated immunity: delayed-type hypersensitivity (D.T.H.) to sheep red blood cell, footpad swelling. In kind it is in vivo. To be noted: normal mice, 5, 0.5, 0,05 and 0.005 mg/kg once intraperitoneally; statement on Table 1 (image). On the procedure: This effect was investigated using as its index the degree of delayed- type hypersensitivity (D.T.H.) to sheep red blood cell (SRBC) injectd intravenously as an antigen (see J. Exp. Med. 139, 1529-1539, 1974).
A suspension of 10^5 SRBCs in 0.05 ml of physiological saline solution was injected intravenously into Slc-CDF1 mice (female, 9 weeks old). Simultaneously, histargin monohydrate in doses of 5, 0.5, 0,05 and 0.005 mg/kg was administerd once intraperitoneally as a solution dissolved in physiological saline solution.
Four days after admnistration, a suspension of 10^8 SRBCs in 0.05 ml of physiological saline solution was injected subcutaneously to the footpads to induce D.T.H. Twenty-four hours after the subcutaneous injection, footpad swellings (increases in the foot thicknesses) were measured with a caliper. The mean footpad swelling in control animals receiving SRBCs and physiological saline solution but without the test compound was designated as C, which was set at 100 %• The mean footpad swelling in animals treated with SRBCs, physiological saline solution, and the test compound was designated as T. The ratio of T to C was calculated to evaluate the effect of the test compound to potentiate cell-mediated immunity.

The next test has as its system enkephalinase B. Put plainly: enkephalinase B inhibition (tritiated methionine enkephalin hydrolysis). It counts as biochemical, crab-eating monkeys. As to conditions: concentration of 100 µg/ml, pH 7.0. On the procedure:
Enkephalinase B was obtained by homogenizing the brains of crab-eating monkeys, fractionating the homogenate, and purifying soluble fractions in accordance with the method of Hazato et al. (Biochemical and Biophysical Research Communications, Vol. 105, No. 2, pp. 470-475, 1982). The inhibitory activity of histargin against enkephalinase B was measured by the method of Hasato et al. described in the same reference.
Ten µmol of methionine enkephalin (Tyr-Gly-Gly-Phe-Met) having the terminal tyrosine partially tritiated was used as a substrate. This substrate was hydrolyzed with enkephalinase B in 100 µl of […] Tris-hydrochloric acid buffer solution (pH 7.0). The segment, Tyr-Gly, resulting from hydrolysis was separated using a column of Porapak Q (a product of Whatman), and determined quantitatively based on its radioactivity. The results obtained when the above reaction was carried out in the presence of histargin were compared with those obtained when the reaction was performed in the absence of histargin. Based on the comparison, the enkephalinase B-inhibiting activity of histragin was evaluated.

In the case of `CC(C)C[C@H](NC(=O)[C@@H](O)[C@H](N)Cc1ccccc1)C(=O)O` [Bestatin], the “Potentiation of morphine-induced analgesia (%)” value (“Potentiation … (%)” for short) in the test with Wistar rats (250 mg/kg, for comparison, Wistar rats) amounted to 19.9%.
Consider `CN1CC[C@]23c4c5ccc(O)c4O[C@H]2[C@@H](O)C=C[C@H]3[C@H]1C5` [Morphine], for which the entries for the “Potentiation … (%)” value with Wistar rats (morphine only 0.5 mg/kg (control group)), in the test with Wistar rats (morphine only 2 mg/kg) and with Wistar rats (morphine only 3 mg/kg) were 0%, 28.4% and 35.1%, respectively.
Usually IC50 stands for the concentration that inhibits the measured activity by half. Consider `N=C(N)NCCCC(NCCNC(Cc1cnc[nH]1)C(=O)O)C(=O)O` (centres unmarked) [histargin monohydrate, histargin], for which the IC50 at carboxypeptidase B is 33.8 µM. In addition, the “Potentiation … (%)” value in the test on Wistar rats (100 mg/kg intraperitoneally + 0.5 mg/kg morphine, morphine-unresponsive Wistar rats) turned out to be 33.8%. Also, in the test on Slc-CDF1 mice, the “effect on cell-mediated immunity (D.T.H. footpad swelling, T/C)” value is given as “potentiates cell-mediated immunity”. Besides, in the test on enkephalinase B, the “inhibition against enkephalinase B” value is 92%.

For the origin of these results see EP0127076A2, “Histargin, a microbiological process for its preparation, its use as a medicament, and the strain Streptomyces roseoviridis having the ability to produce histargin” (MICROBIAL CHEMISTRY RESEARCH FOUNDATION, priority 1983, dated 1984).
